{"source": "ChEMBL document CHEMBL1134487", "about": "“Design, synthesis, and biological evaluation of analogues of the antitumor agent, 2-(4-[(7-chloro-2-quinoxalinyl)oxy]phenoxy)propionic acid (XK469)” (2001)", "key": {"[1]": {"test_system": "Mus musculus", "assay": "In vivo activity tested against C3H mice bearing colon adenocarcinoma -38(colon-38) tumor measured as log Kill value was based on tumors that grew at 2770 mg/kg (po); None", "type": "functional, organism-based", "parameters": "dose 2770 mg/kg"}, "[2]": {"test_system": "Mus musculus", "assay": "In vivo activity tested against C3H mice bearing colon adenocarcinoma -38(colon-38) tumor measured as activity rating at 2770 mg/kg (po)", "type": "functional"}, "[3]": {"test_system": "Mus musculus", "assay": "In vivo activity tested against C3H mice bearing colon adenocarcinoma -38(colon-38) tumor measured as % treated/control calculated at 2770 mg/kg (po)", "type": "functional"}, "[4]": {"test_system": "Mus musculus", "assay": "In vivo activity tested against C3H mice bearing colon adenocarcinoma -38(colon-38) tumor measured as body weight loss at 2770 mg/kg (po)", "type": "functional"}, "[5]": {"test_system": "Mus musculus", "assay": "In vivo activity tested against C3H mice bearing colon adenocarcinoma -38(colon-38) tumor measured as % treated/control calculated at 2686 mg/kg (po)", "type": "functional"}, "[6]": {"test_system": "Mus musculus", "assay": "In vivo activity tested against C3H mice bearing colon adenocarcinoma -38(colon-38) tumor measured as activity rating at 2686 mg/kg (po)", "type": "functional"}, "[7]": {"test_system": "Mus musculus", "assay": "In vivo activity tested against C3H mice bearing colon adenocarcinoma -38(colon-38) tumor measured as body weight loss at 2686 mg/kg (po)", "type": "functional"}, "[8]": {"test_system": "Mus musculus", "assay": "In vivo activity tested against C3H mice bearing colon adenocarcinoma -38(colon-38) tumor measured as log Kill value was based on tumors that grew at 2686 mg/kg (po)", "type": "functional, organism-based", "parameters": "dose 2686 mg/kg"}, "[9]": {"test_system": "Mus musculus", "assay": "In vivo activity tested against C3H mice bearing panc-03 murine tumor measured as body weight loss at 561 mg/kg (po)", "type": "functional"}, "[10]": {"test_system": "Mus musculus", "assay": "In vivo activity tested against C3H mice bearing panc-03 murine tumor measured as log Kill value was based on tumors that grew at 1010 mg/kg (po)", "type": "functional, organism-based", "parameters": "dose 1010 mg/kg"}, "[11]": {"test_system": "Mus musculus", "assay": "In vivo activity tested against C3H mice bearing panc-03 murine tumor measured as % treated/control calculated at 561 mg/kg (po)", "type": "functional"}, "[12]": {"test_system": "Mus musculus", "assay": "In vivo activity tested against C3H mice bearing panc-03 murine tumor measured as activity rating at 561 mg/kg (po)", "type": "functional"}, "[13]": {"test_system": "Mus musculus", "assay": "In vivo activity tested against C3H mice bearing panc-03 murine tumor measured as log Kill value was based on tumors that grew at 561 mg/kg (po); None", "type": "functional, organism-based", "parameters": "dose 561 mg/kg"}, "[14]": {"test_system": "Mus musculus", "assay": "In vivo activity tested against C3H mice bearing panc-03 murine tumor measured as body weight loss at 1010 mg/kg (po)", "type": "functional"}, "[15]": {"test_system": "Mus musculus", "assay": "In vivo activity tested against C3H mice bearing panc-03 murine tumor measured as % treated/control calculated at 1010 mg/kg (po)", "type": "functional"}, "[16]": {"test_system": "Mus musculus", "assay": "In vivo activity tested against C3H mice bearing panc-03 murine tumor measured as log Kill value was based on tumors that grew at 1085 mg/kg (po)", "type": "functional, organism-based", "parameters": "dose 1085 mg/kg"}, "[17]": {"test_system": "Mus musculus", "assay": "In vivo activity tested against C3H mice bearing panc-03 murine tumor, measured as cures at 1085 mg/kg (po); 3/5 cures", "type": "functional"}, "[18]": {"test_system": "Mus musculus", "assay": "In vivo activity tested against C3H mice bearing panc-03 murine tumor measured as % treated/control calculated at 1085 mg/kg (po)", "type": "functional"}, "[19]": {"test_system": "Mus musculus", "assay": "In vivo activity tested against C3H mice bearing panc-03 murine tumor measured as body weight loss at 1085 mg/kg (po)", "type": "functional"}, "[20]": {"test_system": "Mus musculus", "assay": "In vivo activity tested against C3H mice bearing panc-03 murine tumor measured as activity rating at 1085 mg/kg (po)", "type": "functional"}, "[21]": {"test_system": "Mus musculus", "assay": "In vivo activity tested against C3H mice bearing mammary adenocarcinoma -17/ADR tumor measured as log Kill value was based on tumors that grew at 99 mg/kg (po)", "type": "functional, organism-based", "parameters": "dose 99 mg/kg"}, "[22]": {"test_system": "Mus musculus", "assay": "In vivo activity tested against C3H mice bearing panc-03 murine tumor measured as body weight loss at 180 mg/kg (po)", "type": "functional"}, "[23]": {"test_system": "Mus musculus", "assay": "In vivo activity tested against C3H mice bearing mammary adenocarcinoma -17/ADR tumor measured as log Kill value was based on tumors that grew at 162 mg/kg (po)", "type": "functional, organism-based", "parameters": "dose 162 mg/kg"}, "[24]": {"test_system": "Mus musculus", "assay": "In vivo activity tested against C3H mice bearing mammary adenocarcinoma -17/ADR tumor measured as body weight loss at 99 mg/kg (po)", "type": "functional"}, "[25]": {"test_system": "Mus musculus", "assay": "In vivo activity tested against C3H mice bearing mammary adenocarcinoma -16c/ADR tumor measured as body weight loss at 164 mg/kg (po)", "type": "functional"}, "[26]": {"test_system": "Mus musculus", "assay": "In vivo activity tested against C3H mice bearing panc-03 murine tumor measured as log Kill value was based on tumors that grew at 324 mg/kg (po)", "type": "functional, organism-based", "parameters": "dose 324 mg/kg"}, "[27]": {"test_system": "Mus musculus", "assay": "In vivo activity tested against C3H mice bearing mammary adenocarcinoma -17/ADR tumor measured as % treated/control calculated at 162 mg/kg (po)", "type": "functional"}, "[28]": {"test_system": "Mus musculus", "assay": "In vivo activity tested against C3H mice bearing mammary adenocarcinoma -17/ADR tumor measured as body weight loss at 162 mg/kg (po)", "type": "functional"}, "[29]": {"test_system": "Mus musculus", "assay": "In vivo activity tested against C3H mice bearing panc-03 murine tumor measured as % treated/control calculated at 180 mg/kg (po)", "type": "functional"}, "[30]": {"test_system": "Mus musculus", "assay": "In vivo activity tested against C3H mice bearing panc-03 murine tumor measured as log Kill value was based on tumors that grew at 180 mg/kg (po)", "type": "functional, organism-based", "parameters": "dose 180 mg/kg"}, "[31]": {"test_system": "Mus musculus", "assay": "In vivo activity tested against C3H mice bearing mammary adenocarcinoma -17/ADR tumor measured as % treated/control calculated at 99 mg/kg (po)", "type": "functional"}, "[32]": {"test_system": "Mus musculus", "assay": "In vivo activity tested against C3H mice bearing panc-03 murine tumor measured as % treated/control calculated at 324 mg/kg (po)", "type": "functional"}, "[33]": {"test_system": "Mus musculus", "assay": "In vivo activity tested against C3H mice bearing panc-03 murine tumor measured as body weight loss at 324 mg/kg (po)", "type": "functional"}, "[34]": {"test_system": "Mus musculus", "assay": "In vivo activity tested against C3H mice bearing mammary adenocarcinoma -16c/ADR tumor measured as log Kill value was based on tumors that grew at 164 mg/kg (po)", "type": "functional, organism-based", "parameters": "dose 164 mg/kg"}, "[35]": {"test_system": "Mus musculus", "assay": "In vivo activity tested against C3H mice bearing mammary adenocarcinoma -16c/ADR tumor measured as % treated/control calculated at 164 mg/kg (po)", "type": "functional"}, "[36]": {"test_system": "Mus musculus", "assay": "In vivo activity tested against C3H mice bearing panc-03 murine tumor measured as % treated/control calculated at 1320 mg/kg (po)", "type": "functional"}, "[37]": {"test_system": "Mus musculus", "assay": "In vivo activity tested against C3H mice bearing panc-03 murine tumor measured as log Kill value was based on tumors that grew at 1320 mg/kg (po)", "type": "functional, organism-based", "parameters": "dose 1320 mg/kg"}, "[38]": {"test_system": "Mus musculus", "assay": "In vivo activity tested against C3H mice bearing panc-03 murine tumor measured as body weight loss at 1320 mg/kg (po)", "type": "functional"}}, "note": "The source made the active and inactive calls. No cut-off for these calls is given here.", "data": [{"compound": "COC(=O)C(C)Oc1ccc(Oc2cnc3cc(Cl)ccc3n2)cc1", "note": "(stereo not drawn)", "values": [{"measurement": "Log kill", "setting": "[1]", "result": "inactive"}, {"measurement": "Activity rating", "setting": "[2]", "result": "<0.7"}, {"measurement": "T/C", "setting": "[3]", "result": ">100", "unit": "%"}, {"measurement": "Body weight loss", "setting": "[4]", "result": 0, "unit": "%"}]}, {"compound": "CCOC(=O)C(C)Oc1ccc(Oc2cnc3cc(Cl)ccc3n2)cc1", "note": "(stereo not drawn) [QUIZALOFOP ETHYL ESTER]", "values": [{"measurement": "T/C", "setting": "[5]", "result": 61, "unit": "%"}, {"measurement": "Activity rating", "setting": "[6]", "result": "<0.7"}, {"measurement": "Body weight loss", "setting": "[7]", "result": 0, "unit": "%"}, {"measurement": "Log kill", "setting": "[8]", "result": 0.42}]}, {"compound": "CC(Oc1ccc(Oc2cnc3c(Cl)cccc3n2)cc1)C(=O)O", "note": "(stereo not drawn)", "values": [{"measurement": "Body weight loss", "setting": "[9]", "result": 2, "unit": "%"}, {"measurement": "Log kill", "setting": "[10]", "result": 0.27}, {"measurement": "T/C", "setting": "[11]", "result": ">100", "unit": "%"}, {"measurement": "Activity rating", "setting": "[12]", "result": "<0.7"}, {"measurement": "Log kill", "setting": "[13]", "result": "inactive"}, {"measurement": "Body weight loss", "setting": "[14]", "result": -2, "unit": "%"}, {"measurement": "T/C", "setting": "[15]", "result": 59, "unit": "%"}]}, {"compound": "CC(Oc1ccc(Oc2cnc3ccc(F)cc3n2)cc1)C(=O)O", "note": "(stereo not drawn)", "values": [{"measurement": "Log kill", "setting": "[16]", "result": 3.7}, {"measurement": "Cures", "setting": "[17]", "result": 3}, {"measurement": "T/C", "setting": "[18]", "result": 0, "unit": "%"}, {"measurement": "Body weight loss", "setting": "[19]", "result": -13, "unit": "%"}, {"measurement": "Activity rating", "setting": "[20]", "result": ">2.8"}]}, {"compound": "COc1c(Cl)ccc2ncc(Oc3ccc(OC(C)C(=O)O)cc3)nc12", "note": "(stereo not drawn)", "values": [{"measurement": "Log kill", "setting": "[21]", "result": 1.2}, {"measurement": "Body weight loss", "setting": "[22]", "result": 5, "unit": "%"}, {"measurement": "Log kill", "setting": "[23]", "result": 1.5}, {"measurement": "Body weight loss", "setting": "[24]", "result": -1.5, "unit": "%"}, {"measurement": "Body weight loss", "setting": "[25]", "result": -6.2, "unit": "%"}, {"measurement": "Log kill", "setting": "[26]", "result": 3}, {"measurement": "T/C", "setting": "[27]", "result": 7, "unit": "%"}, {"measurement": "Body weight loss", "setting": "[28]", "result": -16.4, "unit": "%"}, {"measurement": "T/C", "setting": "[29]", "result": 33, "unit": "%"}, {"measurement": "Log kill", "setting": "[30]", "result": 0.64}, {"measurement": "T/C", "setting": "[31]", "result": 13, "unit": "%"}, {"measurement": "T/C", "setting": "[32]", "result": 0, "unit": "%"}, {"measurement": "Body weight loss", "setting": "[33]", "result": -15, "unit": "%"}, {"measurement": "Log kill", "setting": "[34]", "result": 1.7}, {"measurement": "T/C", "setting": "[35]", "result": 7.5, "unit": "%"}]}, {"compound": "CC(Oc1ccc(Oc2cnc3ccc(Cl)cc3n2)cc1)C(N)=O", "note": "(stereo not drawn)", "values": [{"measurement": "T/C", "setting": "[36]", "result": 7.3}, {"measurement": "Log kill", "setting": "[37]", "result": 1.9}, {"measurement": "Body weight loss", "setting": "[38]", "result": -3.6, "unit": "%"}]}]}
